Assay results as given in patent US10227356B2, “Compounds, compositions and methods for inhibiting CNKSR1” (Phusis Therapeutics, Inc., priority 2015, dated 2019).

Target: T1, PLEKHA7 PH-domain (Homo sapiens, UniProt Q6IQ23)
T1 construct: The plekstrin homology domain of CNK and PLEKHA7 expressed with GST at the N-terminus; made in house
T1 sequence (Q6IQ23 164-282 limits assumed): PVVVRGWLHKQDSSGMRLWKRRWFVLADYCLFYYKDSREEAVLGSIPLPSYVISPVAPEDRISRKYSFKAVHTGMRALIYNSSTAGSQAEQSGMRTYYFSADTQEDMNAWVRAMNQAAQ
Assay: Surface plasmon resonance binding to PLEKHA7 PH-domain
Conditions: SPR; read-out: PLEK KD
Method: The plekstrin homology domain of CNK and PLEKHA7 expressed with GST at the N-terminus, CNK(PH)-GST were immobilized on a CM5 chip. Analysis of potential small molecule drug binding was done using a Biacore T200. Immobilization of antibody was run at 37° C. and a flow rate of 5 μL/min. A freshly prepared mixture of aqueous 0.4M 1-ethyl-3-(3-dimethylaminopropyl)carbodiimide hydrochloride (EDC) and aqueous 0.1M N-hydroxysuccinamide (NETS), (0.2M/0.05M EDC/NHS solution) is injected for 480 seconds over a conditioned (Tanious, et al doi:10.1016/50091-679X(07)84003-9) CM5 chip flow cell. The activated surface is then injected at 37° C., flow rate of 5 μL/min for 480 sec with 30 μg/mL anti-GST antibody, freshly suspended in pH 5.0 10 mM acetate buffer. Expected capture is 12000-20000 response units (RU). The remaining active surface is deactivated with 480 sec injections of 0.1M ethylenediamine in borate buffer (GE Healthcare) and then 1M ethanolamine pH 8.5 to provide 10000-18000 RU of covalently linked antibody on the flow cell. An upstream reference flow cell (Fc1) and a downstream working flow cell (Fc2) are prepared in this manner. […] Binding responses were determined 4 seconds prior to the conclusion of the injection. […]

Kd: 261 µM
Structure (SMILES): CCOC(=O)/C=C/c1cc(NS(=O)(=O)c2cccs2)c2c(c1O)OCO2 [Compound 88, (E)-ethyl 3-(4-hydroxy-7-(thiophene-2-sulfonamido)benzo[d][1,3]dioxol-5-yl)acrylate]
